These results are taken from patent US20140148454A1, “SUBSTITUTED AMINO-ACRYLCARBOXAMIDES AS KCNQ2/3 MODULATORS” (GRÜNENTHAL GMBH, priority 2012, published 2014).

The subject of experiment [1] is withdrawal reflex of the rat tail (tail flick) to radiant heat beam. The experiment in a line: Low-intensity tail flick test (rat). Conditions: dose 10 mg/kg (dose in brackets), MPE = percentage of maximum possible effect. In kind it is in vivo. The procedure: Method II. Low-Intensity Tail Flick Test (Rat)
In the low-intensity tail flick test, the determination of the antinociceptive effect of the compounds according to the invention towards an acute noxious thermal stimulus is carried out by measuring the withdrawal reflex of the rat tail (tail flick) in response to a radiant heat beam (analgesia meter; model 2011 of the company Rhema Labortechnik, Hofheim, Germany) according to the method described by D'Amour and Smith (J. Pharm. Exp. Ther. 72, 74 79 (1941). To this end, the rats were placed in a plexiglas restrainer, and a low-intensity radiant heat beam (48° C.) was focused onto the dorsal surface of the tail root. The stimulus intensity was adjusted to result in a mean pre-drug control withdrawal latency of about 7 s, thus also allowing a supraspinal modulation of the spinally mediated acute nociceptive reflex. […] Before administration of a compound according to the invention, the animals were pre-tested twice in the course of five minutes and the mean of these measurements was calculated as the pre-test mean. The antinociceptive effect was determined at 20, 40 and 60 min after peroral compound administration. The antinociceptive effect was calculated based on the increase in the tail withdrawal latency according to the following formula and is expressed as percentage of the maximum possible effect (MPE [%]): […]
(In hot-plate and tail-flick tests a longer latency is read as antinociception.)

In the next experiment the target is T1, KCNQ2/3 channels (Homo sapiens, UniProt O43525+O43526).
T1 construct: expressed in transfected cells; host or cells: CHO-K1 cells kept under selection antibiotics
The experiment in a line: Fluorescence assay using a voltage sensitive dye (fluorimetry). Conditions: CHO-K1 cells expressing KCNQ2/3 channels. In kind it is cell-based. The procedure: Method I. Fluorescence Assay Using a Voltage Sensitive Dye (Fluorimetry) […] CHO-K1 cells expressing KCNQ2/3 channels are cultivated adherently at 37° C., 5% CO2 and 95% humidity in cell culture bottles (e.g. 80 cm^2 TC flasks, Nunc) with DMEM-high glucose (Sigma Aldrich, D7777) including 10% FCS (PAN Biotech, e.g. 3302-P270521) or alternatively MEM Alpha Medium (1×, liquid, Invitrogen, #22571), 10% fetal calf serum (FCS) (Invitrogen, #10270-106, heat-inactivated) and the necessary selection antibiotics.
Before being sown out for the measurements, the cells are washed with 1×DPBS buffer Ca^2+/Mg^2+-free (e.g. Invitrogen, #14190-094) and detached from the bottom of the culture vessel by using Accutase (PAA Laboratories, #L11-007) (incubation with Accutase for 15 min at 37° C.). The cell number is determined using a CASY™ cell counter (TCC, Scharfe System). Depending on the optimal density for each individual cell line, 20,000-30,000 cells/well/100 μl are seeded onto 96-well Corning™ CeIIBIND™ assay plates (Flat Clear Bottom Black Polystyrene Microplates, #3340). Freshly seeded cells are then left to settle for one hour at room temperature, followed by incubation for 24 hours at 37° C., 5% CO2 and 95% humidity.
The voltage-sensitive fluorescent dye from the Membrane Potential Assay Kit (Red™ Bulk format part R8123 for FLIPR, MDS Analytical Technologies™) is prepared by dissolving the contents of one vessel Membrane Potential Assay Kit Red Component A in 200 ml of extracellular buffer (ES buffer, 120 mM NaCl, 1 mM KCl, 10 mM HEPES, 2 mM CaCl2, 2 mM MgCl2, 10 mM glucose; pH 7.4). After removal of the nutrient medium, the cells are washed once with 200 μl of ES buffer, then loaded for 45 min at room temperature in 100 μl of dye solution in the dark.
Fluorescence measurements are carried out in a BMG Labtech FLUOstar™, BMG Labtech NOVOstar™ or BMG Labtech POLARstar™ instrument (525 nm excitation, 560 nm emission, Bottom Read mode). After incubation with the dye, 50 μl of the test substances in the desired concentrations, or 50 μl of ES buffer for control purposes, are applied to the wells of the assay plate and incubated for 30 min at room temperature while being shielded from light. The fluorescence intensity of the dye is then measured for 5 min and the fluorescence value F1 of each well is thus determined at a given, constant time. 15 μl of a KCl solution are then added to each well (final concentration of potassium ions 92 mM). The change in fluorescence intensity is subsequently monitored until all the relevant values have been obtained (mainly 5-30 min). At a given time post KCl application, a fluorescence value F2 is determined, in this case at the time of the fluorescence peak.
For calculation, the fluorescence intensity F2 is corrected for the fluorescence intensity F1, and the activity (ΔF/F) of the target compound on the potassium channel is determined as follows:
In order to determine whether a substance has agonistic activity, is determined by adding to the well only the buffer solution instead of the test substance, determining the value F1K of the fluorescence intensity, adding the potassium ions as described above, and measuring a value F2K of the fluorescence intensity. F2K and F1K are then calculated as follows: […]
A substance has an agonistic activity on the potassium channel if it is possible to conclude that a target compound has agonistic activity if Calculations of EC50 and IC50 values are carried out with the aid of ‘Prism v4.0’ software (GraphPad Software™).

Consider `CCCc1cc(N2CCOCC2)nc(C)c1C(=O)NCc1ccc(Cl)cc1` [Example 4, N-[(4-Chlorophenyl)-methyl]-2-methyl-6-morpholin-4-yl-4-propyl-pyridine-3-carboxylic acid amide], for which the “Low intensity tail flick, rat, peroral, MPE (dose)” value in experiment [1] is given as 42 (10) %. Also, the Emax on KCNQ2/3 channels (relative to retigabine = 100%, read-out: Fluorimetry % efficacy (retigabine = 100%)) was determined as 187%. In addition, the EC50 on KCNQ2/3 channels (voltage-sensitive dye, read-out: Fluorimetry EC50/IC50) was 263 nM.
